Patent publication US11980613B2, “Methods for reversing HIV latency using BAF complex modulating compounds” (priority 2018, dated 2024)
pEC50: −log10 of the molar value.

Tests used:
[1] = tested on: Bmi1-luciferase reporter cell line; assay: Bmi1-luciferase reporter assay (screen for inhibitors of BAF-mediated transcriptional repression); format: cell-based, mouse; settings: for activity in the Bmi1 luciferase reporter assays: grading in words
Description: Low passage mESCs from 129 mice (20 million, p10) were electroporated with 40 μg of a linearized construct consisting of 2 kb homology upstream of the Bmi1 locus, firefly luciferase at exon 1 of Bmi1 followed by loxP neo and a 6 kb 3′ homology arm with thymidine kinase outside the homology arms. The cells were plated on 10 gelatin treated plates (60 mm) of irradiated neo resistant MEFs and selected with G418 and ganciclovir for 5 days. 384 colonies were selected, trypsinized and replated in gelatin treated 24-well plates for expansion. The cells were split and DNA was isolated for digestions with EcoRI or BamHI. We confirmed the successful homologous recombination in 7 out 384 colonies using Southern blot analysis at both the 5′ (EcoRI) and 3′ (BamHI) end (see Table S2 of Marian et al., “Small Molecule Targeting of Specific BAF (mSWI/SNF) Complexes for HIV Latency Reversal,” Cell Chem. Biol. (Dec. 20, 2018) 25: 1443-1445). We deleted the neomycin cassette using transfected Cre recombinase and confirmed the excision at all clones using a second round of Southern blot analysis at the 3′ end (BamHI).
(§1) 3. Compound Treatment: 10,000 cells in 30 μL ESC media were plated in white 384 well CellBind plates. The cells were cultured in a 37° C., 5% CO2 incubator for 24 h and 100 nL/well of 0.75 mM of positive control (Pubchem SID: 85814977) or 100 nL/well of 3.75 mM compound library (primary screen) was added via pin transfer into plates. There was no effect on assay readout at DMSO concentrations up to 0.5%. The cells were cultured in a 37° C., 5% CO2 incubator for 24 h for luciferase reporter assay and 18 h for qRT-PCR assay. 4. Luciferase assay: (PubChem AID 602393 primary, PubChem AID 651717 confirmatory.) The assay plates were removed from the incubator and equilibrates for 10 minutes to room temperature. Promega SteadyGlo® solution (10 μL/well) was added to each well of the assay plates. The assay plates were mixed at 1000 rpm for 15 seconds and then incubated for 10 minutes at room temperature. The luciferase levels were read on a Perkin Elmer Envision in Ultra Sensitive Luminescence mode. Signals remained stable up to 2 hours. 5. EqRT-PCR secondary screen (PubChem AID 743180, 743177, 743176) The qRTPCR screen was performed as published^54. In brief, 5,000 ES cells were plated on gelatin-coated 384-well tissue culture plates and cultured in a 37C, 5% CO2 incubator. 24 h later, hit compounds in 100 nL DMSO were treated at eight different doses. 18 h after compound treatment cells were washed two times with 100 μL PBS and all excess PBS was removed by centrifuging the plates upside down at 1000 rpm. The Ambion® Cells-to-Ct kit was used to generate cDNA. In brief, the cells were lysed in the plate in 10 μL lysis buffer containing DNase for 10 minutes and quenched with 1 μL lysis stop buffer. The lysate (2 μL) was added to 5 μL RT reaction buffer (2×), 2.5 μL nuclease-free water and 0.5 μL Reverse transcriptase (20×) and incubated at 37° C. for 60 minutes and 95° C. for 1 minute to generate 10 μL of cDNA. cDNA (1 μL) was used in each 5 μL qPCR reaction with Roche master mix and TaqMan probes (Applied Biosystems) for Bmi1-FAM (Mm00776122_gH), Ring1a-FAM (Mm01278940_m1/4331182), or Fgf4-FAM (Mm00438916_g1/4351372) alongside actin-VIC (4352341E) for a loading control. The qPCR was run accordingly: 95° C. for 10 minutes Then 55 cycles of: 95° C. for 10 seconds followed by 60° C. for 30 seconds. The fold increase in transcription was calculated using the ΔΔCT method^84. 6. Viability Assays (PubChem AID: 743188, 743189, 743190, 1053139, 1053140, 1053141)

[2] = tested on: latent HIV-1 in CD4+ T cells from c-ART treated HIV-1 infected patients; assay: HIV latency reversal from patient samples (cell associated HIV Pol mRNA); format: cell-based, human; settings: Patient 1 (one patient); single agents; 24 hours
Description: 23. HIV latency reversal from patient samples: All patients were older than 18 years, c-ART treated for at least 3 years, and their viral loads were below 50 copies/ml for more than 12 months with no blips in the past two years. CD4+ T cells from aviremic HIV+ patients were isolated as described previously^55 with minor modifications. Briefly, frozen PBMCs were cultured in RPMI medium over-night to recover. Then next day CD4+ T cells were isolated twice (enriched CD4+ T cells were subjected to a second round of CD4+ T cell enrichment) and left for 6 hrs to recover. Three million cells were treated with DMSO, 10 μM BRD-K80443127, 200 nM Prostratin, 10 μM BRD-K80443127 and 200 nM prostratin, and αCD3/CD28 magnetic beads (at cell:bead ration 1:1) as a positive control in triplicate. After 24 hours cells were lysed in TRIreagent (Sigma), total RNA was isolated with Total RNA Zol-Out (A&A Biotechnology) kit and cDNA was synthetized using random primers and Superscript II Reverse Transcriptase (Life Technologies). Detection of cellular associated pol RNA was performed as described previously (Pol: For […] (SEQ ID NO:15), Rev-[…] (SEQ ID NO: 16))^55. This study was conducted in accordance with the ethical principles of the Declaration of Helsinki. HIV-1 infected patient volunteers were informed and provided signed consent to participate in the study. The study protocol was approved by The Netherlands Medical Ethics Committee (MEC-2012-583). cDNA generated from control and 10 μM BRD-K80443127 treated samples was used to assess expression of BAF target genes biomarker genes-p21 and C-MYC.

[3] = tested on: latent HIV-1 infected T cells; assay: HIV latency reversal activity of the thiophene hit; format: cell-based
[4] = tested on: BAF target genes (Bmi1, Ring1, Fgf4); assay: qRT-PCR of BAF target genes in ESCs; format: cell-based, mouse; settings: 30 μM of compound, 18 h
Description: as §1, with “The lysate (2 μL) was added to 5 μL RT reaction buffer (2×), 2.5 μL nuclease-free water and 0.5 μL Reverse transcriptase (20×) and incubated at 37° C. for 60 minutes and 95° C. for 1 minute to generate 10 μL of cDNA. cDNA (1 μL) was used in each 5 μL qPCR reaction with Roche master mix and TaqMan probes (Applied Biosystems) for Bmi1-FAM (Mm00776122_gH), Ring1a-FAM (Mm01278940_m1/4331182), or Fgf4-FAM (Mm00438916_g1/4351372) alongside actin-VIC (4352341E) for a loading control. The qPCR was run accordingly: 95° C. for 10 minutes Then 55 cycles of: 95° C. for 10 seconds followed by 60° C. for 30 seconds.” left out, “6. Viability Assays (PubChem AID: 743188, 743189, 743190, 1053139, 1053140, 1053141)” left out

wild type ESCs = assay: Viability in wild type ESCs (CellTiter-Glo); format: cell-based, mouse; settings: up to 30 μM; 72 h
Description: FIG. 2: 12-membered macrolactams are inhibitors of BAF-mediated transcription. A. The EC50 was measured for the best screen hit BRD-K98645985 after 24 h compound treatment with the Bmi1-luciferase reporter cell line. Each concentration was dosed in triplicate. B. The fold change of the transcription of three BAF target genes was calculated using qRT-PCR after 18 h BRD-K98645985 treatment (30 μM) or Brg1 knockdown compared to untreated cells. C. Viability measurements in wild type ESCs were performed after 72 h of compound or DMSO treatment using CellTiter-Glo®. D. The structure activity relationship of the eight stereoisomers of BRD-K98645985 based on initial luciferase induction from the primary screen. E. The structure activity relationship of the 3618 macrolactam library members based on initial luciferase induction from the primary screen.
Cell culture: HepG2, A549 and HEK293 cells were propagated to 95% confluence in DMEM containing 10% FBS 1% Pen/Strep, 1% L-Glutamine. Cells were plated at 2000 per well in 40 μL media in white tissue culture treated 384-well plates and incubated at 5% CO2; 95% humidity, 37° C. for 24 hours. […] The plates were read on Perkin-Elmer EnVision with standard luminescence settings for 0.1 sec per well.

HepG2 cells = assay: Viability assay HepG2; format: cell-based; settings: 72 h
Description: (§2) Cell culture: HepG2, A549 and HEK293 cells were propagated to 95% confluence in DMEM containing 10% FBS 1% Pen/Strep, 1% L-Glutamine. Cells were plated at 2000 per well in 40 μL media in white tissue culture treated 384-well plates and incubated at 5% CO2; 95% humidity, 37° C. for 24 hours. Compound (100 nL) was added to wells using a pin tool (CyBi Well) alongside 100 nL cytotoxic compounds, mitoxantrone (final concentration of 10 μM) as a positive control. The cells were incubated for 72 hours at 37° C., 95% humidity 5% CO2. Plates were removed from the incubator, equilibrated for 15 minutes to room temperature; and 20 μL 50% Promega CellTiterGlo (diluted 1:1 with PBS, pH 7.4) was added. The plates were read on Perkin-Elmer EnVision with standard luminescence settings for 0.1 sec per well.

HEK293T cells = assay: Viability assay HEK293T; format: cell-based; settings: 72 h
Description: as §2

A549 cells = assay: Viability assay A549; format: cell-based; settings: 72 h
Description: as §2

[5] = tested on: latent provirus in J-Lat T-cell line; assay: Cell line models of HIV-1 latency (J-Lat, GFP); format: cell-based; settings: higher concentrations than in primary cells; 48 h
Description: [drawing 27] i. BRD-K25923209: To Macrocycle 2141-039b (0.804 g, 1.550 mmol) dissolved in MeOH (Volume: 15.50 ml) was added tin(II) chloride dihydrate (3.50 g, 15.50 mmol). […] Upon completion, the reaction mixture was concentrated and the resulting residue was dissolved in EtOAc and washed with 2 M aq. KOH (2×). The combined aqueous layers were washed with EtOAc (4×). The resulting organic layers were washed with brine, saturated aqueous NaHCO3, water, and brine, dried over MgSO4, filtered, and concentrated. […] BRD-K80443127: A screwtop vial was charged with aniline (BRD-K25923209) (43.3 mg, 0.089 mmol) and CH2Cl2 (Volume: 886 μl, Density: 1.325 g/ml). Isopropyl chloroformate (115 μl, 0.115 mmol) and DIEA (46.4 μl, 0.266 mmol) were added dropwise and reaction stirred under ambient conditions for 1 h. […] BRD-K04244835: A 2.5 mL microwave vial was charged with aniline (BRD-K25923209) (40 mg, 0.082 mmol) and EtOH (Volume: 819 μl, Density: 0.81 g/ml). Squaramide (CRE-III-001) (20.75 mg, 0.098 mmol), DIEA (42.8 μl, 0.246 mmol), and DMAP (2.000 mg, 0.016 mmol) were added in sequence and the vial was sealed. […] 9. […] 10. […] 11.

CCC(CC)Nc1c(Nc2ccc3c(c2)C(=O)N(C)C[C@H](OC)[C@@H](C)CN(Cc2ccc(-c4ccccn4)cc2)[C@@H](C)CO3)c(=O)c1=O [BRD-K04244835]
activity in the Bmi1 luciferase reporter assays [1]: low/no activity

CC(=O)O[C@@]12C[C@@H](C)[C@@]3(O)[C@@H](C=C(CO)C[C@]4(O)C(=O)C(C)=C[C@@H]34)[C@@H]1C2(C)C [prostratin, reference compound]
cell associated HIV mRNA (Pol), response [2]: responded

C=CCNc1nc(NCc2cccc(OC)c2)c2sc(-c3ccccc3)cc2n1 [MLS003122856]
HIV latency reversal activity [3]: moderate

CO[C@H]1CN(C)C(=O)c2cc(NC(=O)NC(C)C)ccc2OC[C@H](C)N(Cc2ccccc2)C[C@@H]1C [BRD-K13648511]
activity in the Bmi1 luciferase reporter assays [1]: low/no activity

CO[C@H]1CN(C)C(=O)c2cc(NC(=O)NC(C)C)ccc2OC[C@H](C)N(Cc2ccc(-c3ccccn3)cc2)C[C@@H]1C [BRD-K98645985]
activity in the Bmi1 luciferase reporter assays [1]: high activity
pEC50 ([1]; re-evaluation of hit, 24 h compound treatment): ~5.63
fold decrease in Fgf4 [4]: 3.3 fold
fold increase in Bmi1 [4]: 5 fold
fold increase in Ring1 [4]: 2.6 fold
toxicity to ESCs (wild type ESCs): no toxicity
toxicity to HepG2 cells (HepG2 cells): no toxicity
toxicity to HEK293T cells (HEK293T cells): no toxicity
toxicity to A549 cells (A549 cells): no toxicity
latency reversal (GFP) [5]: concentration dependent latency reversal

CO[C@H]1CN(C)C(=O)c2cc(N)ccc2OC[C@H](C)N(Cc2ccc(-c3ccccn3)cc2)C[C@@H]1C [BRD-K25923209]
activity in the Bmi1 luciferase reporter assays [1]: high activity

CO[C@H]1CN(C)C(=O)c2cc(NC(=O)NC(C)C)ccc2OC[C@H](C)N(Cc2ccc(-c3cccnc3)cc2)C[C@@H]1C [BRD-K17257309]
activity in the Bmi1 luciferase reporter assays [1]: moderate activity
